This passage reports IC50 results from US8691865B2 (AbbVie Inc., priority 2008, dated 2014).

One may read the IC50 as the concentration at which inhibition is half-maximal.

human Cav2.2, sequence (Q00975 whole entry): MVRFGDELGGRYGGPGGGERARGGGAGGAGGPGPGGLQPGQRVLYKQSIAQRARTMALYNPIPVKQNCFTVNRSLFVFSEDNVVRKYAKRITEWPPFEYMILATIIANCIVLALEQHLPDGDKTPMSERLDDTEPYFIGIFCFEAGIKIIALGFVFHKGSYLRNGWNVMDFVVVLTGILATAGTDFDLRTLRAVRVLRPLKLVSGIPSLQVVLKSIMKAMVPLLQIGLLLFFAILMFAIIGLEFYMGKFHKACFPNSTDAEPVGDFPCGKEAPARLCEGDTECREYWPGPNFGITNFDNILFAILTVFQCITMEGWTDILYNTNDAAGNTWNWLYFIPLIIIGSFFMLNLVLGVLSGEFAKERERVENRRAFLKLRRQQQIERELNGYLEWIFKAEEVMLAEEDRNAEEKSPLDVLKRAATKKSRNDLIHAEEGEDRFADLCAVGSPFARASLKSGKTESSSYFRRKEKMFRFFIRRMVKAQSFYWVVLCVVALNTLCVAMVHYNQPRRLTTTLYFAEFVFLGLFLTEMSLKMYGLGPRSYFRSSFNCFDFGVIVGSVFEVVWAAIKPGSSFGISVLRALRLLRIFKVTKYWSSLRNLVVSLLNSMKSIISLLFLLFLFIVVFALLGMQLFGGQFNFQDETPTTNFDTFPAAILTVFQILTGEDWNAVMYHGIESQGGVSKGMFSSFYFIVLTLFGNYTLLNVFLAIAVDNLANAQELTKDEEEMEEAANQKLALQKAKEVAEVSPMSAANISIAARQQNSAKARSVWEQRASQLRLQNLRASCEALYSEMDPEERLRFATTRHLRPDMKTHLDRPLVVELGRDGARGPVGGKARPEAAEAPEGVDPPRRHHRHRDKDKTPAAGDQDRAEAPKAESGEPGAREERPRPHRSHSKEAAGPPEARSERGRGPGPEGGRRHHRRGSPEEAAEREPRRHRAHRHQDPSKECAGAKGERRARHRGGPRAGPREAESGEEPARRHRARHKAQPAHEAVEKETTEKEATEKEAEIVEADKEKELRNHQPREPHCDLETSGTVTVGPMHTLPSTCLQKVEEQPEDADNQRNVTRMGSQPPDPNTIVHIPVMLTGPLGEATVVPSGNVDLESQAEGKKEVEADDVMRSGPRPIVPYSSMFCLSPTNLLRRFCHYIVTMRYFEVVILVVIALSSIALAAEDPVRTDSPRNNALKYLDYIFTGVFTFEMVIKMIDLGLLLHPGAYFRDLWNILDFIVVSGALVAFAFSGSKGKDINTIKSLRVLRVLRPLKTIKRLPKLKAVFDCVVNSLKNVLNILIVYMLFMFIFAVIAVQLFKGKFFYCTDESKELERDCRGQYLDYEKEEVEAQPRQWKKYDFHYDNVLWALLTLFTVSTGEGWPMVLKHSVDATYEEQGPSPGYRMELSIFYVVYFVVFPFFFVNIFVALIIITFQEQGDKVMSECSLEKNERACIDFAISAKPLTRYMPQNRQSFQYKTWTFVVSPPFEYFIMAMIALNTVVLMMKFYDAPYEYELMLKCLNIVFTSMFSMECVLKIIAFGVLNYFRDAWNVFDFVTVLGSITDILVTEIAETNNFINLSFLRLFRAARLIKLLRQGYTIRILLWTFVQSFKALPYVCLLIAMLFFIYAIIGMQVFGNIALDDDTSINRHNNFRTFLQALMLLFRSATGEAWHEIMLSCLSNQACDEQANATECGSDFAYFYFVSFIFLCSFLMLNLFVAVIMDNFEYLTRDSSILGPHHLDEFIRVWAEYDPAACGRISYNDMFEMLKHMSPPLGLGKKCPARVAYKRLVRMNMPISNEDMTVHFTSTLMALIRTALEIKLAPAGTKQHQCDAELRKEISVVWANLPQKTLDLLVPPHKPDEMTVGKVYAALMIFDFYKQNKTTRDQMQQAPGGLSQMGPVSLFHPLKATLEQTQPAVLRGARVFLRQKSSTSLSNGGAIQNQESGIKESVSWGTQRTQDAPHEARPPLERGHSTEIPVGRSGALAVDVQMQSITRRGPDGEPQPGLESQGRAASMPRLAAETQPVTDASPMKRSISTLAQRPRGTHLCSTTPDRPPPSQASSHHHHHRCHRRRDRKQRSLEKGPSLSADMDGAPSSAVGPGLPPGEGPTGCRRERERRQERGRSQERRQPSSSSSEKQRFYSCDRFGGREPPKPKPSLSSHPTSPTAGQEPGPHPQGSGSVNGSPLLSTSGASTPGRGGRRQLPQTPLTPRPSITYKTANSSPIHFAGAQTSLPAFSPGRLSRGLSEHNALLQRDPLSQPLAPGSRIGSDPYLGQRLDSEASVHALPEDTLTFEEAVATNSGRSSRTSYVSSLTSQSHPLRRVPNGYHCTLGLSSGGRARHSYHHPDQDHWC
human Cav2.2, sequence (P54289 25-956 partner limits assumed): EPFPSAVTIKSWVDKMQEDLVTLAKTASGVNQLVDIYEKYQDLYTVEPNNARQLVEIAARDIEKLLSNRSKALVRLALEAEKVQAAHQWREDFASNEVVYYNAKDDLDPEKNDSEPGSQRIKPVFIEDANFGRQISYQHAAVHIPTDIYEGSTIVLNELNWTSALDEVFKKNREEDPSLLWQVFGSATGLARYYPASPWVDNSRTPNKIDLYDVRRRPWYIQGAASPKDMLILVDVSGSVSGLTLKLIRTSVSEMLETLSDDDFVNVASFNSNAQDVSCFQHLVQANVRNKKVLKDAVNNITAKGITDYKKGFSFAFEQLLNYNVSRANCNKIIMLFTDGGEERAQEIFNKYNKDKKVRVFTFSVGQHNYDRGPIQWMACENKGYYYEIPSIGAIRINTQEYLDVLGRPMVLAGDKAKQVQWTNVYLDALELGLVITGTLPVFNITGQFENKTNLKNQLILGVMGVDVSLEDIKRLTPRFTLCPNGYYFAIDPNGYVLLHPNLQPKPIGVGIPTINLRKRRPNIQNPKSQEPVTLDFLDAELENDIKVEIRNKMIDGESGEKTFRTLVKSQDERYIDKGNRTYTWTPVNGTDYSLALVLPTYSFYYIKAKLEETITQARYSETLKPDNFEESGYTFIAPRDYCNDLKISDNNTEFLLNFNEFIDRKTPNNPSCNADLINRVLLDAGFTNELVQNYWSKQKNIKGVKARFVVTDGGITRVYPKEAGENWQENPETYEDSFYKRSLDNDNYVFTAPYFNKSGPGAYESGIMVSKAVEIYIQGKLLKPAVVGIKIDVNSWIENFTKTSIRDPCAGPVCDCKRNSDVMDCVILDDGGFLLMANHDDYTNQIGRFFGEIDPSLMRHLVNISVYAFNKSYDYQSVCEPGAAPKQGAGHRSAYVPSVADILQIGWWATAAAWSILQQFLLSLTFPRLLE
human Cav2.2, sequence (P54289 957-1103 partner limits assumed): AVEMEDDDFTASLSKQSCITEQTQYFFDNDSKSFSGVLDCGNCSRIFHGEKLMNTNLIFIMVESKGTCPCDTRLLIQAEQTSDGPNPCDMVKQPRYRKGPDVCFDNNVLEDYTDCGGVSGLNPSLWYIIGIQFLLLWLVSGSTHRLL
human Cav2.2, sequence (P54284 whole entry partner): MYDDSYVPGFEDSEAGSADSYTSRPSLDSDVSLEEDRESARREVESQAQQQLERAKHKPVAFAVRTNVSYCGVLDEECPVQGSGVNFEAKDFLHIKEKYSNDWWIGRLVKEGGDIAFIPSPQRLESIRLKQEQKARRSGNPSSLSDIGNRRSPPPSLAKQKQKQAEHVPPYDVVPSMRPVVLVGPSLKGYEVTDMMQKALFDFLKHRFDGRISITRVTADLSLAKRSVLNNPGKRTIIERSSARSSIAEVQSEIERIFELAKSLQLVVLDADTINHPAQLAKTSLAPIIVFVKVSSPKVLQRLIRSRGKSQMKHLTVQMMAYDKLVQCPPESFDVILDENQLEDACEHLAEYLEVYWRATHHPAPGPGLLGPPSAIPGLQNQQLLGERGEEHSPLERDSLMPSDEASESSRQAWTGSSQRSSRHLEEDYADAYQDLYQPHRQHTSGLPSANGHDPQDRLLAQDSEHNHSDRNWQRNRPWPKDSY

One experiment addresses human Cav2.2 (Homo sapiens, UniProt Q00975). Kind of experiment: Assessment of calcium channel activity using FLIPR (Ca2+ influx in IMR32 cells). It counts as cell-based.
Conditions: not given
In short, it runs like this: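 Human neuroblastoma IMR32 cells were seeded at 1−1.2×10^5 cells/well and cultured 48 h at 37 °C before FLIPR calcium influx measurement. Percent inhibition at each concentration was calculated against the no-inhibitor signal, and IC50 came from sigmoidal dose-response fits.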
In the case of `CN[C@H](C(=O)N[C@H]1CC[C@@H]2CN(c3cccc(OC(F)(F)F)c3)C[C@@H]21)C(C)C` [Example 758, N^2-methyl-N-{(3aR,4S,6aS)-2-[3-(trifluoromethoxy)phenyl]octahydrocyclopenta[c]pyrrol-4-yl}-L-valinamide], the IC50 is 1.42 µM.

As to `O=S(=O)(c1cccc(C(F)(F)F)c1)N1C[C@H]2CC[C@H](NCc3cc4cc(F)ccc4[nH]3)[C@H]2C1` [Example 650, (3aR,4S,6aS)-N-[(5-fluoro-1H-indol-2-yl)methyl]-2-{[3-(trifluoromethyl)phenyl]sulfonyl}octahydrocyclopenta[c]pyrrol-4-amine], the IC50 came out at 0.59 µM.

In the case of `CCC[C@H](NC)C(=O)N[C@@H]1CC[C@H]2CN(Cc3ccccc3)C[C@H]21` [Example 352, N^1-[(3aS,4R,6aR)-2-benzyloctahydrocyclopenta[c]pyrrol-4-yl]-N^2-methyl-L-norvalinamide], the IC50 was greater than 30 µM.

`CN[C@H](C(=O)N[C@H]1CC[C@@H]2CN(c3ccc(C(F)(F)F)cn3)C[C@@H]21)C(C)C` [Example 763, N^2-methyl-N-{(3aR,4S,6aS)-2-[5-(trifluoromethyl)pyridin-2-yl]octahydrocyclopenta[c]pyrrol-4-yl}-L-valinamide]: the IC50 was found to be 12.3 µM.

Turning to `CN[C@@H](CC(C)C)C(=O)N[C@H]1CC[C@@H]2CN(c3ccccc3Cl)C[C@@H]21` [Example 634, N-[(3aR,4S,6aS)-2-(2-chlorophenyl)octahydrocyclopenta[c]pyrrol-4-yl]-N^2-methyl-L-leucinamide], the IC50 worked out at 2.39 µM.

Take `Cc1ccc(CN[C@H]2CC[C@@H]3CN(c4cccc(C(F)(F)F)n4)C[C@@H]32)cc1` [Example 649, (3aR,4S,6aS)-N-(4-methylbenzyl)-2-[6-(trifluoromethyl)pyridin-2-yl]octahydrocyclopenta[c]pyrrol-4-amine]: the IC50 was 0.41 µM.

As for `Cc1c(CN[C@H]2CC[C@@H]3CN(c4cccc(C(F)(F)F)n4)C[C@@H]32)[nH]c2ccccc12` [Example 664, (3aR,4S,6aS)-N-[(3-methyl-1H-indol-2-yl)methyl]-2-[6-(trifluoromethyl)pyridin-2-yl]octahydrocyclopenta[c]pyrrol-4-amine], the IC50 was found to be 1.69 µM.

Take `CCCC[C@H](NC)C(=O)N[C@H]1CC[C@@H]2CN(c3cccc(C(F)(F)F)n3)C[C@@H]21` [Example 589, N^2-methyl-N-{(3aR,4S,6aS)-2-[6-(trifluoromethyl)pyridin-2-yl]octahydrocyclopenta[c]pyrrol-4-yl}-L-norleucinamide]: the IC50 amounted to 0.32 µM.

For the molecule `NCC(=O)N[C@H]1CC[C@@H]2CN(c3ccc(C(F)(F)F)cc3)C[C@@H]21` [Example 751, N-{(3aR,4S,6aS)-2-[4-(trifluoromethyl)phenyl]octahydrocyclopenta[c]pyrrol-4-yl}glycinamide], the IC50 was greater than 3 µM.

With `O=C(N[C@H]1CC[C@H]2CN(Cc3ccccc3)C[C@H]21)C1(c2ccccc2)CCCC1` (relative stereo) [Example 1, N-[(3aS*,4S*,6aR*)-2-benzyloctahydrocyclopenta[c]pyrrol-4-yl]-1-phenylcyclopentanecarboxamide], the half-inhibitory concentration (IC50) stood at 1.93 µM.

As for `CCCC[C@H](NC)C(=O)N[C@H]1CC[C@@H]2CN(c3ccc(C(F)(F)F)cn3)C[C@@H]21` [Example 601, N^2-methyl-N-{(3aR,4S,6aS)-2-[5-(trifluoromethyl)pyridin-2-yl]octahydrocyclopenta[c]pyrrol-4-yl}-L-norleucinamide], the IC50 was found to be 2.11 µM.

Regarding `CN[C@H](C(=O)N[C@H]1CC[C@@H]2CN(c3ccc(OC(F)(F)F)cc3)C[C@@H]21)C(C)C` [Example 756, N^2-methyl-N-{(3aR,4S,6aS)-2-[4-(trifluoromethoxy)phenyl]octahydrocyclopenta[c]pyrrol-4-yl}-L-valinamide], the IC50 was greater than 9.5 µM.

For the molecule `CCCC(C(=O)NC1CCC2CN(Cc3ccc(F)cc3)CC21)N(C)C(=O)OC(C)(C)C` (single isomer, unassigned) [Example 315], the IC50 stood at 5.36 µM.

Regarding `CC(C)C(C(=O)N[C@H]1CC[C@@H]2CN(Cc3cccc(C(F)(F)F)c3)C[C@@H]21)C(C)C` [Example 305, 2-isopropyl-3-methyl-N-{(3aR,4S,6aS)-2-[3-(trifluoromethyl)benzyl]octahydrocyclopenta[c]pyrrol-4-yl}butanamide], the IC50 was 1.63 µM.

With `CC(C)C[C@@H](C(=O)N[C@@H]1CC[C@H]2CN(S(C)(=O)=O)C[C@H]21)N1CCCC1` [Example 346, (2S)-4-methyl-N-[(3aS,4R,6aR)-2-(methylsulfonyl)octahydrocyclopenta[c]pyrrol-4-yl]-2-pyrrolidin-1-ylpentanamide], the IC50 is greater than 30 µM.

`CC(C)COC(=O)N[C@@H](CC(C)C)C(=O)N[C@@H]1CC[C@H]2CN(Cc3cccc(C(F)(F)F)c3)C[C@H]21` [Example 178, isobutyl (S)-4-methyl-1-oxo-1-((3aS,4R,6aR)-2-(3-(trifluoromethyl)benzyl)octahydrocyclopenta[c]pyrrol-4-ylamino)pentan-2-ylcarbamate]: the IC50 stood at 1 µM.

Take `Cc1c[nH]c(C(=O)N[C@H]2CC[C@@H]3CN(c4cccc(C(F)(F)F)n4)C[C@@H]32)c1` [Example 572, 4-methyl-N-{(3aR,4S,6aS)-2-[6-(trifluoromethyl)pyridin-2-yl]octahydrocyclopenta[c]pyrrol-4-yl}-1H-pyrrole-2-carboxamide]: the IC50 amounted to 1.01 µM.

Staying with this experiment, now noted: IC50 (μM) or percent inhibition (* indicates 3 minute incubation, otherwise 60 minute), IC50; 3 minute pre-incubation (*); IMR32 cells, 80 mM KCl depolarization.
Consider `CC(C)C(C(=O)N[C@H]1CC[C@@H]2CN(CC3CCCCC3)C[C@@H]21)c1ccccc1` (stereo partly drawn) [Example 83, N-[(3aR,4S,6aS)-2-(cyclohexylmethyl)octahydrocyclopenta[c]pyrrol-4-yl]-3-methyl-2-phenylbutanamide], for which the 50% inhibitory concentration (IC50) came to 2.6 µM.

Staying with this experiment, now noted: read-out: IC50 (μM) or percent inhibition (* indicates 3 minute incubation, otherwise 60 minute); IC50; 60 minute pre-incubation with compound; IMR32 cells, 80 mM KCl depolarization.
Regarding `CC(C)C(C(=O)N[C@@H]1CC[C@H]2CN(Cc3cccc(C(F)(F)F)c3)C[C@H]21)c1ccccc1` (stereo partly drawn) [Example 82, 3-methyl-2-phenyl-N-{(3aS,4R,6aR)-2-[3-(trifluoromethyl)benzyl]octahydrocyclopenta[c]pyrrol-4-yl}butanamide], the IC50 was 1.48 µM.

Take `CC(C)C[C@H](NC(=O)NC(C)(C)C)C(=O)N[C@@H]1CC[C@H]2CN(Cc3cccc(C(F)(F)F)c3)C[C@H]21` [Example 180, N^2-[(tert-butylamino)carbonyl]-N^1-{(3aS,4R,6aR)-2-[3-(trifluoromethyl)benzyl]octahydrocyclopenta[c]pyrrol-4-yl}-L-leucinamide]: the IC50 was 1.83 µM.

For `O=S(=O)(N[C@H]1CC[C@H]2CN(Cc3cccc(C(F)(F)F)c3)C[C@H]21)c1cccc(C(F)(F)F)c1` (relative stereo) [Example 185, 3-(trifluoromethyl)-N-{(3aS*,4S*,6aR*)-2-[3-(trifluoromethyl)benzyl]octahydrocyclopenta[c]pyrrol-4-yl}benzenesulfonamide], the IC50 was found to be 0.91 µM.

With `CC(C)C(C(=O)N[C@H]1CC[C@@H]2CN(CCCc3cc(F)cc(Cl)c3)C[C@@H]21)c1ccccc1` (stereo partly drawn) [Example 114, N-{(3aR,4S,6aS)-2-[3-(3-chloro-5-fluorophenyl)propyl]octahydrocyclopenta[c]pyrrol-4-yl}-3-methyl-2-phenylbutanamide], the IC50 came to 2.81 µM.

With `CCC[C@H](NC)C(=O)N[C@H]1CC[C@@H]2CN(S(=O)(=O)c3ccc(C#N)cc3)C[C@@H]21` [Example 536, N^1-{(3aR,4S,6aS)-2-[(4-cyanophenyl)sulfonyl]octahydrocyclopenta[c]pyrrol-4-yl}-N^2-methyl-L-norvalinamide], the IC50 was 8.37 µM.

For the molecule `O=C(N[C@H]1CC[C@H]2CN(C(c3ccccc3)c3ccccc3)C[C@H]21)C(C1CCCCC1)C1CCCCC1` [Example 120, N-[(3aS,4S,6aR)-2-benzhydryloctahydrocyclopenta[c]pyrrol-4-yl]-2,2-dicyclohexylacetamide], the half-maximal inhibitory concentration (IC50) turned out to be 3.44 µM.

With `CC(C)C[C@@H](NC(=O)OC(C)(C)C)C(=O)N[C@H]1CC[C@H]2CN(Cc3cccc(C(F)(F)F)c3)C[C@H]21` (stereo in doubt) [Example 138, N^2-(tert-butyloxycarbonyl)-N^1-{(3aS*,4S*,6aR*)-2-[3-(trifluoromethyl)benzyl]octahydrocyclopenta[c]pyrrol-4-yl}-D-leucinamide], the IC50 was found to be 0.82 µM.

On to `O=S(=O)(N[C@H]1CC[C@H]2CN(CCCCO)C[C@H]21)c1cccc(C(F)(F)F)c1` [Example 195, N-[(3aS,4S,6aR)-2-(4-hydroxybutyl)octahydrocyclopenta[c]pyrrol-4-yl]-3-(trifluoromethyl)benzenesulfonamide], for which the IC50 came to 22.1 µM.

Turning to `O=C(N[C@H]1CC[C@H]2CN(CCCc3cccc(Cl)c3)C[C@H]21)C(C1CCCCC1)C1CCCCC1` [Example 67, N-{(3aS,4S,6aR)-2-[3-(3-chlorophenyl)propyl]octahydrocyclopenta[c]pyrrol-4-yl}-2,2-dicyclohexylacetamide], the IC50 was 1.32 µM.

For `O=C(N[C@@H]1CC[C@H]2CN(CCC(c3ccccc3)c3ccccc3)C[C@H]21)C(C1CCCCC1)C1CCCCC1` [Example 79, 2,2-dicyclohexyl-N-[(3aS,4R,6aR)-2-(3,3-diphenylpropyl)octahydrocyclopenta[c]pyrrol-4-yl]acetamide], the IC50 came to 0.94 µM.

`CC(C)C[C@H](NS(=O)(=O)C1CC1)C(=O)N[C@@H]1CC[C@H]2CN(Cc3cccc(C(F)(F)F)c3)C[C@H]21` [Example 172, N^2-(cyclopropylsulfonyl)-N^1-{(3aS,4R,6aR)-2-[3-(trifluoromethyl)benzyl]octahydrocyclopenta[c]pyrrol-4-yl}-L-leucinamide]: the IC50 is 2.03 µM.

On to `CCC[C@H](NC)C(=O)N[C@H]1CC[C@@H]2CN(S(=O)(=O)c3cccs3)C[C@@H]21` [Example 533, N^2-methyl-N^1-[(3aR,4S,6aS)-2-(thien-2-ylsulfonyl)octahydrocyclopenta[c]pyrrol-4-yl]-L-norvalinamide], for which the half-inhibitory concentration (IC50) was 9.68 µM.
